# Test results: ChEMBL document CHEMBL1201861, “Genomics of Drug Sensitity in Cancer screening data, Wellcome Trust Sanger Institute”
# System: MDA-MB-134-VI
# Experiment: cells
# Format: functional, cell-based, Homo sapiens
# Conditions: Homo sapiens, MDA-MB-134-VI
# Description: SANGER: Inhibition of human MDA-MB-134-VI cell growth in a cell viability assay.
row,Structure (SMILES),IC50
1,COc1ccc(N(C(=O)Oc2c(C)cccc2C)c2ccnc(Nc3ccc(N4CCN(C)CC4)cc3)n2)c(OC)c1,> 5120 nM
2,C[C@@H](Oc1cc(-c2cnn(C3CCNCC3)c2)cnc1N)c1c(Cl)ccc(F)c1Cl [CRIZOTINIB],> 2000 nM
3,NC(=O)c1cccc(-c2cc(Nc3ccc(OC(F)(F)F)cc3)ncn2)c1,> 1280 nM
4,Cc1ccc(NC(=O)c2ccc(CN3CCN(C)CC3)cc2)cc1Nc1nccc(-c2cccnc2)n1 [IMATINIB],> 2000 nM
5,Cc1cc(N2CCOCC2)cc2[nH]c(-c3c(NC[C@@H](O)c4cccc(Cl)c4)cc[nH]c3=O)nc12,> 5120 nM

# System: Raji;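 note: cell viability assay measuring inhibition of Raji cell growth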
# Experiment: cells
# Format: functional, cell-based, Homo sapiens
# Conditions: Homo sapiens, Raji
# Description: SANGER: Inhibition of human Raji cell growth in a cell viability assay.
row,Structure (SMILES),IC50
1,COc1ccc(N(C(=O)Oc2c(C)cccc2C)c2ccnc(Nc3ccc(N4CCN(C)CC4)cc3)n2)c(OC)c1,> 5120 nM
2,C[C@@H](Oc1cc(-c2cnn(C3CCNCC3)c2)cnc1N)c1c(Cl)ccc(F)c1Cl [CRIZOTINIB],> 2000 nM
3,NC(=O)c1cccc(-c2cc(Nc3ccc(OC(F)(F)F)cc3)ncn2)c1,> 1280 nM
4,Cc1ccc(NC(=O)c2ccc(CN3CCN(C)CC3)cc2)cc1Nc1nccc(-c2cccnc2)n1 [IMATINIB],> 2000 nM
5,Cc1cc(N2CCOCC2)cc2[nH]c(-c3c(NC[C@@H](O)c4cccc(Cl)c4)cc[nH]c3=O)nc12,> 5120 nM

# System: NCI-H510A;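 note: growth inhibition of NCI-H510A cells, read out with a cell viability assay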
# Experiment: cells
# Format: functional, cell-based, Homo sapiens
# Conditions: Homo sapiens, NCI-H510A
# Description: SANGER: Inhibition of human NCI-H510A cell growth in a cell viability assay.
row,Structure (SMILES),IC50
1,COc1ccc(N(C(=O)Oc2c(C)cccc2C)c2ccnc(Nc3ccc(N4CCN(C)CC4)cc3)n2)c(OC)c1,> 5120 nM
2,C[C@@H](Oc1cc(-c2cnn(C3CCNCC3)c2)cnc1N)c1c(Cl)ccc(F)c1Cl [CRIZOTINIB],> 2000 nM
3,NC(=O)c1cccc(-c2cc(Nc3ccc(OC(F)(F)F)cc3)ncn2)c1,> 1280 nM
4,Cc1ccc(NC(=O)c2ccc(CN3CCN(C)CC3)cc2)cc1Nc1nccc(-c2cccnc2)n1 [IMATINIB],> 2000 nM
5,Cc1cc(N2CCOCC2)cc2[nH]c(-c3c(NC[C@@H](O)c4cccc(Cl)c4)cc[nH]c3=O)nc12,> 5120 nM

# System: NCI-H524;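 note: growth inhibition of human NCI-H524 cells, read out through a cell viability assay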
# Experiment: cells
# Format: functional, cell-based, Homo sapiens
# Conditions: Homo sapiens, NCI-H524
# Description: SANGER: Inhibition of human NCI-H524 cell growth in a cell viability assay.
row,Structure (SMILES),IC50
1,COc1ccc(N(C(=O)Oc2c(C)cccc2C)c2ccnc(Nc3ccc(N4CCN(C)CC4)cc3)n2)c(OC)c1,> 5120 nM
2,C[C@@H](Oc1cc(-c2cnn(C3CCNCC3)c2)cnc1N)c1c(Cl)ccc(F)c1Cl [CRIZOTINIB],> 2000 nM
3,NC(=O)c1cccc(-c2cc(Nc3ccc(OC(F)(F)F)cc3)ncn2)c1,> 1280 nM
4,Cc1ccc(NC(=O)c2ccc(CN3CCN(C)CC3)cc2)cc1Nc1nccc(-c2cccnc2)n1 [IMATINIB],> 2000 nM
5,Cc1cc(N2CCOCC2)cc2[nH]c(-c3c(NC[C@@H](O)c4cccc(Cl)c4)cc[nH]c3=O)nc12,> 5120 nM

# System: COR-L279
# Experiment: SANGER: Inhibition of human COR-L279 cell growth in a cell viability assay.
# Format: functional, cell-based
# Conditions: Homo sapiens, COR-L279
row,Structure (SMILES),IC50
1,COc1ccc(N(C(=O)Oc2c(C)cccc2C)c2ccnc(Nc3ccc(N4CCN(C)CC4)cc3)n2)c(OC)c1,> 5120 nM
2,C[C@@H](Oc1cc(-c2cnn(C3CCNCC3)c2)cnc1N)c1c(Cl)ccc(F)c1Cl [CRIZOTINIB],> 2000 nM
3,NC(=O)c1cccc(-c2cc(Nc3ccc(OC(F)(F)F)cc3)ncn2)c1,> 1280 nM
4,Cc1ccc(NC(=O)c2ccc(CN3CCN(C)CC3)cc2)cc1Nc1nccc(-c2cccnc2)n1 [IMATINIB],> 2000 nM
5,Cc1cc(N2CCOCC2)cc2[nH]c(-c3c(NC[C@@H](O)c4cccc(Cl)c4)cc[nH]c3=O)nc12,> 5120 nM

# System: IM-9
# Experiment: SANGER: Inhibition of human IM-9 cell growth in a cell viability assay.
# Format: functional, cell-based
# Conditions: Homo sapiens, IM-9
row,Structure (SMILES),IC50
1,COc1ccc(N(C(=O)Oc2c(C)cccc2C)c2ccnc(Nc3ccc(N4CCN(C)CC4)cc3)n2)c(OC)c1,> 5120 nM
2,C[C@@H](Oc1cc(-c2cnn(C3CCNCC3)c2)cnc1N)c1c(Cl)ccc(F)c1Cl [CRIZOTINIB],> 2000 nM
3,NC(=O)c1cccc(-c2cc(Nc3ccc(OC(F)(F)F)cc3)ncn2)c1,> 1280 nM
4,Cc1ccc(NC(=O)c2ccc(CN3CCN(C)CC3)cc2)cc1Nc1nccc(-c2cccnc2)n1 [IMATINIB],> 2000 nM
5,Cc1cc(N2CCOCC2)cc2[nH]c(-c3c(NC[C@@H](O)c4cccc(Cl)c4)cc[nH]c3=O)nc12,> 5120 nM

# System: SIMA;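 note: growth inhibition of SIMA cells, measured with a cell viability readout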
# Experiment: cells
# Format: functional, cell-based, Homo sapiens
# Conditions: Homo sapiens, SIMA
# Description: SANGER: Inhibition of human SIMA cell growth in a cell viability assay.
row,Structure (SMILES),IC50
1,COc1ccc(N(C(=O)Oc2c(C)cccc2C)c2ccnc(Nc3ccc(N4CCN(C)CC4)cc3)n2)c(OC)c1,> 5120 nM
2,C[C@@H](Oc1cc(-c2cnn(C3CCNCC3)c2)cnc1N)c1c(Cl)ccc(F)c1Cl [CRIZOTINIB],> 2000 nM
3,NC(=O)c1cccc(-c2cc(Nc3ccc(OC(F)(F)F)cc3)ncn2)c1,> 1280 nM
4,Cc1ccc(NC(=O)c2ccc(CN3CCN(C)CC3)cc2)cc1Nc1nccc(-c2cccnc2)n1 [IMATINIB],> 2000 nM
5,Cc1cc(N2CCOCC2)cc2[nH]c(-c3c(NC[C@@H](O)c4cccc(Cl)c4)cc[nH]c3=O)nc12,> 5120 nM

# System: SNU-16;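 note: growth inhibition of human SNU-16 cells, determined with a cell viability readout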
# Experiment: cells
# Format: functional, cell-based, Homo sapiens
# Conditions: Homo sapiens, SNU-16
# Description: SANGER: Inhibition of human NCI-SNU-16 cell growth in a cell viability assay.
row,Structure (SMILES),IC50
1,COc1ccc(N(C(=O)Oc2c(C)cccc2C)c2ccnc(Nc3ccc(N4CCN(C)CC4)cc3)n2)c(OC)c1,15.7 nM
2,C[C@@H](Oc1cc(-c2cnn(C3CCNCC3)c2)cnc1N)c1c(Cl)ccc(F)c1Cl [CRIZOTINIB],> 2000 nM
3,NC(=O)c1cccc(-c2cc(Nc3ccc(OC(F)(F)F)cc3)ncn2)c1,> 1280 nM
4,Cc1ccc(NC(=O)c2ccc(CN3CCN(C)CC3)cc2)cc1Nc1nccc(-c2cccnc2)n1 [IMATINIB],> 2000 nM
5,Cc1cc(N2CCOCC2)cc2[nH]c(-c3c(NC[C@@H](O)c4cccc(Cl)c4)cc[nH]c3=O)nc12,873 nM

# System: CHP-126
# Experiment: cells
# Format: functional, cell-based, Homo sapiens
# Conditions: Homo sapiens, CHP-126
# Description: SANGER: Inhibition of human CHP-126 cell growth in a cell viability assay.
row,Structure (SMILES),IC50
1,COc1ccc(N(C(=O)Oc2c(C)cccc2C)c2ccnc(Nc3ccc(N4CCN(C)CC4)cc3)n2)c(OC)c1,> 5120 nM
2,C[C@@H](Oc1cc(-c2cnn(C3CCNCC3)c2)cnc1N)c1c(Cl)ccc(F)c1Cl [CRIZOTINIB],> 2000 nM
3,NC(=O)c1cccc(-c2cc(Nc3ccc(OC(F)(F)F)cc3)ncn2)c1,> 1280 nM
4,Cc1ccc(NC(=O)c2ccc(CN3CCN(C)CC3)cc2)cc1Nc1nccc(-c2cccnc2)n1 [IMATINIB],> 2000 nM
5,Cc1cc(N2CCOCC2)cc2[nH]c(-c3c(NC[C@@H](O)c4cccc(Cl)c4)cc[nH]c3=O)nc12,> 5120 nM

# System: CAL-148
# Experiment: cells
# Format: functional, cell-based, Homo sapiens
# Conditions: Homo sapiens, CAL-148
# Description: SANGER: Inhibition of human CAL-148 cell growth in a cell viability assay.
row,Structure (SMILES),IC50
1,COc1ccc(N(C(=O)Oc2c(C)cccc2C)c2ccnc(Nc3ccc(N4CCN(C)CC4)cc3)n2)c(OC)c1,> 5120 nM
2,C[C@@H](Oc1cc(-c2cnn(C3CCNCC3)c2)cnc1N)c1c(Cl)ccc(F)c1Cl [CRIZOTINIB],> 2000 nM
3,NC(=O)c1cccc(-c2cc(Nc3ccc(OC(F)(F)F)cc3)ncn2)c1,> 1280 nM
4,Cc1ccc(NC(=O)c2ccc(CN3CCN(C)CC3)cc2)cc1Nc1nccc(-c2cccnc2)n1 [IMATINIB],> 2000 nM
5,Cc1cc(N2CCOCC2)cc2[nH]c(-c3c(NC[C@@H](O)c4cccc(Cl)c4)cc[nH]c3=O)nc12,> 5120 nM

# System: NCI-H2141;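 note: growth inhibition of human NCI-H2141 cells, read out with a cell viability assay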
# Experiment: cells
# Format: functional, cell-based, Homo sapiens
# Conditions: Homo sapiens, NCI-H2141
# Description: SANGER: Inhibition of human NCI-H2141 cell growth in a cell viability assay.
row,Structure (SMILES),IC50
1,COc1ccc(N(C(=O)Oc2c(C)cccc2C)c2ccnc(Nc3ccc(N4CCN(C)CC4)cc3)n2)c(OC)c1,> 5120 nM
2,C[C@@H](Oc1cc(-c2cnn(C3CCNCC3)c2)cnc1N)c1c(Cl)ccc(F)c1Cl [CRIZOTINIB],> 2000 nM
3,NC(=O)c1cccc(-c2cc(Nc3ccc(OC(F)(F)F)cc3)ncn2)c1,> 1280 nM
4,Cc1ccc(NC(=O)c2ccc(CN3CCN(C)CC3)cc2)cc1Nc1nccc(-c2cccnc2)n1 [IMATINIB],> 2000 nM
5,Cc1cc(N2CCOCC2)cc2[nH]c(-c3c(NC[C@@H](O)c4cccc(Cl)c4)cc[nH]c3=O)nc12,> 5120 nM

# System: NCI-H1882;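 note: growth inhibition of the cell line, determined with a viability assay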
# Experiment: cells
# Format: functional, cell-based, Homo sapiens
# Conditions: Homo sapiens, NCI-H1882
# Description: SANGER: Inhibition of human NCI-H1882 cell growth in a cell viability assay.
row,Structure (SMILES),IC50
1,COc1ccc(N(C(=O)Oc2c(C)cccc2C)c2ccnc(Nc3ccc(N4CCN(C)CC4)cc3)n2)c(OC)c1,> 5120 nM
2,C[C@@H](Oc1cc(-c2cnn(C3CCNCC3)c2)cnc1N)c1c(Cl)ccc(F)c1Cl [CRIZOTINIB],> 2000 nM
3,NC(=O)c1cccc(-c2cc(Nc3ccc(OC(F)(F)F)cc3)ncn2)c1,> 1280 nM
4,Cc1ccc(NC(=O)c2ccc(CN3CCN(C)CC3)cc2)cc1Nc1nccc(-c2cccnc2)n1 [IMATINIB],> 2000 nM
5,Cc1cc(N2CCOCC2)cc2[nH]c(-c3c(NC[C@@H](O)c4cccc(Cl)c4)cc[nH]c3=O)nc12,956 nM

# System: SCLC-21H;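 note: growth inhibition of cultured human SCLC-21H cells, read out with a cell viability assay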
# Experiment: cells
# Format: functional, cell-based, Homo sapiens
# Conditions: Homo sapiens, SCLC-21H
# Description: SANGER: Inhibition of human SCLC-21H cell growth in a cell viability assay.
row,Structure (SMILES),IC50
1,COc1ccc(N(C(=O)Oc2c(C)cccc2C)c2ccnc(Nc3ccc(N4CCN(C)CC4)cc3)n2)c(OC)c1,> 5120 nM
2,C[C@@H](Oc1cc(-c2cnn(C3CCNCC3)c2)cnc1N)c1c(Cl)ccc(F)c1Cl [CRIZOTINIB],> 2000 nM
3,NC(=O)c1cccc(-c2cc(Nc3ccc(OC(F)(F)F)cc3)ncn2)c1,> 1280 nM
4,Cc1ccc(NC(=O)c2ccc(CN3CCN(C)CC3)cc2)cc1Nc1nccc(-c2cccnc2)n1 [IMATINIB],> 2000 nM
5,Cc1cc(N2CCOCC2)cc2[nH]c(-c3c(NC[C@@H](O)c4cccc(Cl)c4)cc[nH]c3=O)nc12,> 5120 nM

# System: NCI-H322M;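 note: cell viability assay measuring inhibition of growth of human NCI-H322M cells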
# Experiment: cells
# Format: functional, cell-based, Homo sapiens
# Conditions: Homo sapiens, NCI-H322M
# Description: SANGER: Inhibition of human NCI-H322M cell growth in a cell viability assay.
row,Structure (SMILES),IC50
1,COc1ccc(N(C(=O)Oc2c(C)cccc2C)c2ccnc(Nc3ccc(N4CCN(C)CC4)cc3)n2)c(OC)c1,> 5120 nM
2,C[C@@H](Oc1cc(-c2cnn(C3CCNCC3)c2)cnc1N)c1c(Cl)ccc(F)c1Cl [CRIZOTINIB],> 2000 nM
3,NC(=O)c1cccc(-c2cc(Nc3ccc(OC(F)(F)F)cc3)ncn2)c1,> 1280 nM
4,Cc1ccc(NC(=O)c2ccc(CN3CCN(C)CC3)cc2)cc1Nc1nccc(-c2cccnc2)n1 [IMATINIB],> 2000 nM
5,Cc1cc(N2CCOCC2)cc2[nH]c(-c3c(NC[C@@H](O)c4cccc(Cl)c4)cc[nH]c3=O)nc12,> 5120 nM

# System: ARH-77;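 note: growth inhibition of ARH-77 cells, read out by a cell viability assay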
# Experiment: cells
# Format: functional, cell-based, Homo sapiens
# Conditions: Homo sapiens, ARH-77
# Description: SANGER: Inhibition of human ARH-77 cell growth in a cell viability assay.
row,Structure (SMILES),IC50
1,COc1ccc(N(C(=O)Oc2c(C)cccc2C)c2ccnc(Nc3ccc(N4CCN(C)CC4)cc3)n2)c(OC)c1,> 5120 nM
2,C[C@@H](Oc1cc(-c2cnn(C3CCNCC3)c2)cnc1N)c1c(Cl)ccc(F)c1Cl [CRIZOTINIB],> 2000 nM
3,NC(=O)c1cccc(-c2cc(Nc3ccc(OC(F)(F)F)cc3)ncn2)c1,> 1280 nM
4,Cc1ccc(NC(=O)c2ccc(CN3CCN(C)CC3)cc2)cc1Nc1nccc(-c2cccnc2)n1 [IMATINIB],> 2000 nM
5,Cc1cc(N2CCOCC2)cc2[nH]c(-c3c(NC[C@@H](O)c4cccc(Cl)c4)cc[nH]c3=O)nc12,2800 nM

# System: Daudi;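 note: growth inhibition of Daudi cells, read out by a viability assay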
# Experiment: cells
# Format: functional, cell-based, Homo sapiens
# Conditions: Homo sapiens, Daudi
# Description: SANGER: Inhibition of human Daudi cell growth in a cell viability assay.
row,Structure (SMILES),IC50
1,COc1ccc(N(C(=O)Oc2c(C)cccc2C)c2ccnc(Nc3ccc(N4CCN(C)CC4)cc3)n2)c(OC)c1,714 nM
2,C[C@@H](Oc1cc(-c2cnn(C3CCNCC3)c2)cnc1N)c1c(Cl)ccc(F)c1Cl [CRIZOTINIB],> 2000 nM
3,NC(=O)c1cccc(-c2cc(Nc3ccc(OC(F)(F)F)cc3)ncn2)c1,> 1280 nM
4,Cc1ccc(NC(=O)c2ccc(CN3CCN(C)CC3)cc2)cc1Nc1nccc(-c2cccnc2)n1 [IMATINIB],> 2000 nM
5,Cc1cc(N2CCOCC2)cc2[nH]c(-c3c(NC[C@@H](O)c4cccc(Cl)c4)cc[nH]c3=O)nc12,> 5120 nM
